One test deals with PC12 cells. As to the kind of experiment: Protection of PC12 cells against camptothecin-induced cell death (BCECF AM fluorescence). Type of test: cell-based. The protocol:
The 2-amino-4,5,6,7-tetrahydrobenzothiazole hydrogen iodide, 1-(4-methylphenyl)-2-(4,5,6,7-tetrahydro-2-imino-3(2H)-benzothiazolyl)-ethanone hydrobromide, and analogues were tested for their ability to protect PC12 cells against the toxic agent, camptothecin. PC12 cells were cultured in RPMI1640 media containing 10% horse serum and 5% fetal calf serum (37° C., pH 7.4) until confluent. Thereafter, 2.2×10^4 cells per mL were added to each trough of a 96 well plate (approximately 6,270 cells per well 285 μL) and were left to grow for 12 h. The media then was removed and was replaced by media with and without the compounds to be tested, including precursor, PFTα, and numerous analogues (concentration 100-400 nM, prepared in DMSO to a final dilution of 0.4%, 8 wells per concentration). Following 6 h of incubation, camptothecin (40 μM) was added to 4 of each 8 wells, and the cells were incubated for a further 24 h. Cells then were gently washed twice with phosphate buffered saline (PBS: 0.1 M, 37° C., pH 7.4) and were incubated in PBS containing the live-cell indicator dye, 2′,7′-bis(2-carboxyethey)-5-6-carboxyfluorescein AM ester (BCECF AM: 5 μM) (Molecular Probes, CA), for 45 min in minimal light. This fluorescent dye was taken up and retained by live cells. Finally, the cells were washed twice in PBS and their fluorescence then was quantified (excitation: 490 nm, emission: 535 nm, Perkin Elmer HTS 7000).
PC12 cell survival was also assessed. One hundred percent cell survival was determined from cells incubated in the absence of both any compound and camptothecin. […] Compound-induced toxicity was assessed by comparing cells treated with compound at various concentrations in the absence of camptothecin with cells incubated in the absence of both compound and camptothecin. […] Compound-induced cellular protection was assessed by comparing cells incubated with camptothecin with cells incubated with camptothecin in the presence of compound, in a concentration-dependent manner.

The subject of the next test is rat hippocampal neurons. As to the kind of experiment: Neuronal survival assay in cultured hippocampal neurons treated with camptothecin or etoposide. Format: cell-based. The conditions noted are these: for neuroprotection of hippocampal neurons against camptothecin (in words): 100 nM, added 1 h before camptothecin 5 μM; for neuroprotection of hippocampal neurons against etoposide (in words): added 1 h before etoposide 2.5 μM; for protection of primary hippocampal cells against death induced by camptothecin and etoposide (in words): camptothecin 5 μM, etoposide 2.5 μM, Hydrobromide; for protection of primary hippocampal cells against death induced by camptothecin and etoposide (in words) / neuronal survival: 24 h; for neuronal survival: pretreated with 100 nM of analogue, then camptothecin (5 μM). The protocol:
2-amino-4,5,6,7-tetrahydrobenzothiazole hydrogen and 1-(4-methylphenyl)-2-(4,5,6,7-tetrahydro-2-imino-3(2H)-benzothiazolyl)-ethanone hydrobromide and their analogues were assessed for their ability to protect rat hippocampal cells in culture from camptothecin ([…]).
Dissociated hippocampal cell cultures were established from embryonic day 18 Sprague-Dawley rats (Harlan, Inc.) as described previously. […] 77:220-28. Cells were grown in polyethyleneimine-coated plastic dishes or 22 m^2 glass coverslips, and incubated in Neurobasal medium containing B27 supplements, 2 mM L-glutamine, 25 mg/ml gentamycin, 1 mM Hepes (Gibco BRL) and 0.001% gentamicin sulfate. All experiments were performed using 9-10 day-old cultures. Camptothecin and etoposide (Signia) were prepared as 500× stocks in DMSO. Neuron survival was quantified by established methods. […] Briefly, viable neurons in premarked fields (10× objective) were counted before experimental treatment and at specified time points thereafter. Neurons with intact neurites of uniform diameter and soma with a smooth round appearance were considered viable. In contrast neurons with fragmented neurites and vacuolated soma were considered non-viable.

Test [1] concerns primary hippocampal neurons. As to the kind of experiment: Neuronal survival of primary hippocampal neurons after excitotoxic insult (glutamate). Type of test: cell-based, rat. The conditions noted are these: for protection of hippocampal neurons against glutamate-induced death (in words): 0.04 μM 1 h before glutamate (20 μM), survival at 24 h; for neuron survival increased: neurons pretreated with compound, death induced by glutamate. The procedure:
Dissociated hippocampal cell cultures were established from embryonic day 18 Sprague-Dawley rats (Harlan, Inc.) as described previously. See Culmsee et al. (2001) J. Neurochem. 77:220-28. Cells were grown in polyethyleneimine-coated plastic dishes or 22 m^2 glass coverslips, and incubated in Neurobasal medium containing B27 supplements, 2 mM L-glutamine, 25 mg/ml gentamycin, 1 mM Hepes (Gibco BRL) and 0.001% gentamicin sulfate. All experiments were performed using 9-10 day-old cultures. Camptothecin and etoposide (Signia) were prepared as 500× stocks in DMSO. Neuron survival was quantified by established methods. See Mattson et al. (1993) Neuron 10:243-54. Briefly, viable neurons in premarked fields (10× objective) were counted before experimental treatment and at specified time points thereafter. Neurons with intact neurites of uniform diameter and soma with a smooth round appearance were considered viable. In contrast neurons with fragmented neurites and vacuolated soma were considered non-viable.
Primary hippocampal neurons were prepared and cultured as described above. Cultures were pretreated with compounds 14 and 1 (0.04 μM) 1 h before exposure to glutamate (20 μM) in Locke's medium. The percentage of neuronal survival 24 h after the onset of insult is given as mean values±SD.

A further test relates to caspase activation. As to the kind of experiment: Caspase activation. Format: cell-based.

The values that follow come from patent US20040067991A1, “Tetrahydrobenzothiazole analogues as neuroprotective agents” (priority 2003, published 2004).

Each structure is given as a SMILES string. Entries after “also recorded” stand apart in the source; their conditions may differ. Structures can show the parent of a compound that is named as a salt. Where two headings read alike, the source gives them in different places.

For `Br.CCC(=O)Cn1c2c(sc1=N)CCCC2` [Compound 1, 1-(4.5,6,7-tertahydro-2-imino-3(2H)-benzothiazolyl)-2-butanone Hydrobromide], the EC50 with PC12 cells (6 h preincubation with compound, camptothecin 40 μM for 24 h; read-out: PD50; concentration of compounds required to induce 50% protection (PC50) of PC12 cells from camptothecin-induced cell-death) amounted to 571 nM. Moreover, in the test with rat hippocampal neurons, the “neuroprotection of hippocampal neurons against camptothecin (in words)” value is “significant neuroprotection”; the “neuroprotection of hippocampal neurons against etoposide (in words)” value is “more active than compound PFTα”; the “protection of primary hippocampal cells against death induced by camptothecin and etoposide (in words)” value was “had neuroprotection; also recorded: highly potency”; the neuronal survival is 65%. For the same compound, in test [1], the “protection of hippocampal neurons against glutamate-induced death (in words)” value was “protect” and the neuron survival increased stood at 39%. In addition, the “caspase activation (in words)” value with caspase activation is reported as “suppress caspase activation”.

Turning to `N=c1sc2c(n1Cc1ccccc1)CCCC2` [Compound 14, 3-(phenylmethyl)-4,5,6,7-tetrahydro-2(3H)-benzothiazolimine Hydrobromide], the EC50 in the test with PC12 cells (read-out: PD50; concentration of compounds required to induce 50% protection (PC50) of PC12 cells from camptothecin-induced cell-death; 6 h preincubation with compound, camptothecin 40 μM for 24 h) was found to be 741 nM. Moreover, in the test with rat hippocampal neurons, the “neuroprotection of hippocampal neurons against camptothecin (in words)” value is given as “significant neuroprotection”; the “neuroprotection of hippocampal neurons against etoposide (in words)” value was “more active than compound PFTα”; the “protection of primary hippocampal cells against death induced by camptothecin and etoposide (in words)” value is “had neuroprotection; also recorded: highly potency”; the neuronal survival stood at 61%. For the same compound, in test [1] (Hydrobromide), the “protection of hippocampal neurons against glutamate-induced death (in words)” value is recorded as “protect; also recorded: at least partially reversed”. Besides, in test [1], the neuron survival increased came out at 133%. In addition, the “caspase activation (in words)” value in the test on caspase activation is listed as “suppress caspase activation”.
